Measured values published in patent US20240366639A1, “HETEROCYCLIC GLP-1 AGONISTS” (GASHERBRUM BIO, INC., priority 2021, published 2024).
Like-named read-outs stand apart in the source and are kept apart here.

Molecular target: T1, GLP-1 Receptor (GLP1R) (Homo sapiens, UniProt P43220)
T1 construct: host or cells: HEK293/GLP1R/CRE-LUC
Test: GLP-1R agonist cAMP stimulation assay (Method 3)
Type: cell-based
Details: HEK293/GLP1R/CRE-LUC cells (HDB), Method 3, 30 min incubation
How it was run: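 HEK293 CRE-Luc cells stably expressing GLP-1R (1000 cells/well) were exposed to ½-log serially diluted compound in DPBS with 0.5 mM IBMX and 0.1% BSA for 30 min at 37 °C. cAMP was quantified by HTRF (cAMP-d2/anti-cAMP cryptate), 1 h at room temperature, read at 665/615 nm.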

[1] = read-out: GLP1R cAMP Stimulation DR: EC50 (nM) [Species: Human, Assay Cell Line: HDB]
[2] = read-out: GLP1R cAMP Stimulation DR: pEC50 (M) [Species: Human, Assay Cell Line: HDB] (converted)

T1 sequence (P43220 24-463): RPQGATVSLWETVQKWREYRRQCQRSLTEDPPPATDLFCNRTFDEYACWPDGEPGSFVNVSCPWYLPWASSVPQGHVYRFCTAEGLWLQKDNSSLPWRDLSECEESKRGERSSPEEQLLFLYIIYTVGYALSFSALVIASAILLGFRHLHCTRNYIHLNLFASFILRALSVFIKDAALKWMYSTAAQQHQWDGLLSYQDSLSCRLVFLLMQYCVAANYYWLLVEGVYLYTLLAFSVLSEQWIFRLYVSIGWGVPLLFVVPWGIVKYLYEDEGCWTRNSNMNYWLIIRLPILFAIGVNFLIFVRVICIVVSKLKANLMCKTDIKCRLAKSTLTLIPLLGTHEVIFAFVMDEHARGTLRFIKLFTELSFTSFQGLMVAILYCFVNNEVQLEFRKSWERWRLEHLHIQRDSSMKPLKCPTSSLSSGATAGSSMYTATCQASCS

Row | EC50 [1] [nM] | EC50 [2] [nM] | Structure (SMILES)
1 | < 0.1 | ≤ 0.1 | CNc1cc(-n2ccn(-c3c4c(nn3-c3cc(C)c(F)c(C)c3)CCN(C(=O)c3cc5cc(C6CCOCC6)ccc5n3C3(c5noc(=O)[nH]5)CC3)[C@H]4C)c2=O)ccc1P(=O)(C1CC1)C1CC1 [Compound 148a, (S)-3-(1-(2-(3-(3-(4-(dicyclopropylphosphoryl)-3-(methylamino)phenyl)-2-oxo-2,3-dihydro-1H-imidazol-1-yl)-2-(4-fluoro-3,5-dimethylphenyl)-4-methyl-4,5,6,7-tetrahydro-2H-pyrazolo[4,3-c]pyridine-5-carbonyl)-5-(tetrahydro-2H-pyran-4-yl)-1H-indol-1-yl)cyclopropyl)-1,2,4-oxadiazol-5(4H)-one]
2 | 0.1 to 0.2 | 0.1 to 1 | CCP(=O)(CC)c1ccc(-n2ccn(-c3c4c(nn3-c3cc(C)c(F)c(C)c3)CCN(C(=O)c3cc5cc(N6CCOC(C)(C)C6)ccc5n3[C@@]3(c5noc(=O)[nH]5)C[C@@H]3C)[C@H]4C)c2=O)cc1NC [Compound 150a, 3-((1S,2S)-1-(2-((S)-3-(3-(4-(diethylphosphoryl)-3-(methylamino)phenyl)-2-oxo-2,3-dihydro-1H-imidazol-1-yl)-2-(4-fluoro-3,5-dimethylphenyl)-4-methyl-4,5,6,7-tetrahydro-2H-pyrazolo[4,3-c]pyridine-5-carbonyl)-5-(2,2-dimethylmorpholino)-1H-indol-1-yl)-2-methylcyclopropyl)-1,2,4-oxadiazol-5(4H)-one]
